The text below walks through data of patent US5428031A, “Methods of treating cardiac arrhythmia” (priority 1993, dated 1995).

Like-named read-outs stand apart in the source and are kept apart here.

Data set [1] deals with T1, IKs (slowly activating delayed rectifier K+ current) (Cavia porcellus, UniProt O70344).
T1 construct: Guinea pig ventricular myocytes were isolated; endogenous in cells; host or cells: isolated guinea pig ventricular myocytes
As to the kind of experiment: cell-based. It counts as cell-based, guinea pig. The protocol:
Current amplitude is measured as the difference from the initial instantaneous current level following the capacitance discharge after changing the transmembrane voltage from -50 mV to +50 mV, to the current level at the end of the 1 second voltage step. Normally, an increase in the current amplitude occurs as a function of time and voltage during depolarization of the cardiac cell membrane and this increasing current has been defined as the delayed rectifier K^+ current (IK). […] IKs current occurs as a consequence of time- and voltage-dependent opening of ionic channels or pores in the cardiac cell membrane that allow the relatively selective flow of potassium ions (K^+) from the inside to the outside of the cell, that is, down the voltage and concentration gradient for K^+ ions that is inherent in cardiac cells. Thus, block of the IKs current ultimately reflects block of certain ion channels or pores in the cardiac cell membrane. However, the single pores or channels thought to underlie the IKs current have yet to be measured or identified at the single channel level.
(§1) Guinea pig ventricular myocytes were isolated using a modification of the procedure described by Mitra R and Morad M., "A Uniform Enzymatic Method for Dissociation of Myocytes from Hearts and Stomachs of Nertilorates", Am. J. Physiol. […] Excised hearts were perfused through the aorta (retrograde fashion) at a rate of 10 ml/min with oxygenated, warmed (37° C.) solutions described below. […] The head was then perfused with the same nominally Ca^2+ -free solution containing 150 units/ml Type II collagenase (Worthington) and 0.5 units/ml Type XIV protease (Sigma) for 8 minutes. This perfusate was followed by a Tyrode's solution containing 0.2 mM CaCl2 (without enzymes) for 5 minutes. The digested ventricles were cut into small pieces and gently shaken until cells were visibly dispersed. The cells were stored at room temperature until use, within 8 hours after isolation.
(§2) The suction microelectrode technique described by Giles, W. R. and Shibata, E. F., "Voltage clamp of bull-frog cardiac pacemaker cells: a quantitative, analysis of potassium currents". J. Physiol. […] Microelectrodes were made by using a two stage puller from square bore (1.0 mm o.d.) borosilicate capillary tubing. […] After establishing whole-cell recording mode, negative pressure was maintained on the pipette using a 1 ml gas-tight syringe attached via air tight tubing to the suction port of the microelectrode holder. This minimized dialysis of the cell with the pipette solution.
(§3) To record K^+ currents, the cells were bathed in a Ca^2+ -free Tyrode's :solution containing […] nisoldipine. […] A List EPC-7 clamp amplifier was used to voltage clamp the isolated cells. […] A variety of voltage pulse protocols were used to measure Ca^2+ current and three types of K^+ currents: inward rectifier (IK1), rapidly activating delayed rectifier (IKr) and the slowly activating delayed rectifier (IKs). Sanguinetti M. C. and Jurkiewicz, N. K., "Two components of cardiac delayed rectifier K^+ current: Differential sensitivity to block by Class III antiarrhythmic agents". […] Data was analyzed as % block from control membrane currents.
(§4) Nisoldipins was prepared as a 4 mM stock solution in polyethylne glycol 200. Compounds tested in this series were prepared as 10 mM stock solutions in polyethylene glycol 400 or dimethyl sulfoxide.

The target in data set [2] is T2, IKr (rapidly activating delayed rectifier K+ current) (Cavia porcellus, UniProt O08703).
T2 construct: Guinea pig ventricular myocytes were isolated; endogenous in cells; host or cells: isolated guinea pig ventricular myocytes
T2 sequence (O08703 1-1294): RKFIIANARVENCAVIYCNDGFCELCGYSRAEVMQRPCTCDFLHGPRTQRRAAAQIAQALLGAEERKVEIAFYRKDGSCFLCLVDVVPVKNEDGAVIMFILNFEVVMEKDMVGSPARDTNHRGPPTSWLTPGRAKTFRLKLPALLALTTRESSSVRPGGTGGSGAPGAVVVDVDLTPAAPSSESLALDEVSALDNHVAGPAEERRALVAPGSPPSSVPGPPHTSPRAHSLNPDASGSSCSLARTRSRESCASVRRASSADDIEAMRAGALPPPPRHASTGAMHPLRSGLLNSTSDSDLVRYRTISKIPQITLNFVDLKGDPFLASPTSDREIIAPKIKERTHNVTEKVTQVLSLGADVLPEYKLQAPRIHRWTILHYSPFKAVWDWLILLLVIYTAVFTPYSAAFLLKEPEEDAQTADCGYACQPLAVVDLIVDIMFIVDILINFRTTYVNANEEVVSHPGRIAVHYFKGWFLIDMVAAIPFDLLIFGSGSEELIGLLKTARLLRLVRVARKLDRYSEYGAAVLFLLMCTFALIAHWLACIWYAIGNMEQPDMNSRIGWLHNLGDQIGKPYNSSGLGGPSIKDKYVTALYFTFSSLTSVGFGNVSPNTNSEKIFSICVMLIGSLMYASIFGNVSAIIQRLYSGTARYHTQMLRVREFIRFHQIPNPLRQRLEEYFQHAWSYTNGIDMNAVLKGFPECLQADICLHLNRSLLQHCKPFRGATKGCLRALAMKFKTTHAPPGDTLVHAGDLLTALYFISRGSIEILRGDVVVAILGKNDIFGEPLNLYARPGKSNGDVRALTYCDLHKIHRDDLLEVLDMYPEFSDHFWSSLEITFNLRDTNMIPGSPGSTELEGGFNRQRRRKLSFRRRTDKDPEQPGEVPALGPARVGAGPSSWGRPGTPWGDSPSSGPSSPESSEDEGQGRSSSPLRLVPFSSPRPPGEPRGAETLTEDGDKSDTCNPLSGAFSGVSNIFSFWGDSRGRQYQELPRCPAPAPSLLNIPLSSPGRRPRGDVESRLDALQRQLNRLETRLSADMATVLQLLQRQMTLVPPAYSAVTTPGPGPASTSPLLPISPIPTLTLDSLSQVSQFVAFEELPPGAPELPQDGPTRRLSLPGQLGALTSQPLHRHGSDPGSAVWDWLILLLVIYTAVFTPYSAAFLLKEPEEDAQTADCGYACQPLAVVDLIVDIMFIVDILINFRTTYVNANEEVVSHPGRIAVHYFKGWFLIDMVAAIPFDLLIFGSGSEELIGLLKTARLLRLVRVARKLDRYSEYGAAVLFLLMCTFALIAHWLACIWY
As to the kind of experiment: voltage clamp measurement of IKr block in isolated guinea pig ventricular myocytes. In kind it is cell-based. Here is the method:
as §1, §2, §3, §4

The test system of data set [3] is IKr. The settings on record: cited from earlier work.
For data set [4], the system named is L-type Ca2+ channels. The settings on record: 0.4 mM nisoldipine; cited from earlier work.
Data set [5] deals with K+ currents. The settings on record: 0.4 mM nisoldipine; cited from earlier work.
Data set [6] relates to IKs. The following applies: cited from earlier work.
The subject of data set [7] is Na+ currents. The settings on record: cited from earlier work.
Data set [8] relates to Ca2+ currents. The following applies: cited from earlier work.
The subject of data set [9] is thyroid function. The settings on record: cited from earlier work.
The test system of data set [10] is adrenergic. The settings on record: cited from earlier work.
The subject of data set [11] is phospholipase. The settings on record: cited from earlier work.
The conditions of data set [12]: cited from earlier work.
Where [13] appears, read: read-out: IC50 or % Block (μM), IKr (% block).
[14] abbreviates: read-out: Cellular Electrophysiology (% Block), IKs.
The mark [15] stands for this setting: read-out: Cellular Electrophysiology (% Block), IKr.
Setting [16] is: 1 μM, read-out: Cellular Electrophysiology (% Block), IKs.
Setting [17] is: 10 μM, read-out: Cellular Electrophysiology (% Block), IKs.
Where [18] appears, read: 1 μM, read-out: Cellular Electrophysiology (% Block), IKr.
The mark [19] stands for this setting: 10 μM, read-out: Cellular Electrophysiology (% Block), IKr.

Broadly, the IC50 is the concentration at which inhibition is half-maximal.

`CN1C(=O)[C@@H](NC(=O)c2cc3ccccc3[nH]2)N=C(c2ccccc2)c2ccccc21` [Compound 2, 3(S)-(-)-1,3-dihydro-3-(2-indolecarbonylamino)-1-methyl-5-phenyl-2H-1,4-benzodiazepin-2-one]: the inhibition at 1 µM in [1] (read-out: IC50 or % Block (μM), IKs (% block)) was found to be 25%; in data set [2] (setting [13]), 21%.

`CN1C(=O)[C@H](N)N=C(c2ccccc2)c2ccccc21` [Example 7]: in [1] (setting [14]), the inhibition at 1 µM is 29.9 ± 6% and the inhibition at 10 µM was determined as 43.4 ± 10.8%. For the same compound, in [2] (setting [15]), the inhibition at 1 µM was found to be 14.8 ± 6.7% and the inhibition at 10 µM worked out at 36.4 ± 2.9%.

For the compound `CN1C(=O)[C@H](NC(=O)C2CCC3(CC2)CCN(C(=O)OC(C)(C)C)CC3)N=C(c2ccccc2)c2ccccc21` [Example 40, (+)-N-[(3R)-2,3-Dihydro-1-methyl-2-oxo-5-phenyl-1H-1,4-benzo-diazepin-3-yl]-1'-(1,1-dimethylethoxycarbonyl)spiro(cyclohexan-4,4'-piperidine)-1-carboxamide], in [1] (in words), the “IKs inhibition, purity of action” value was “not a pure IKs inhibitor”.

`CS(=O)(=O)Nc1ccc2c(c1)C(O)CC1(CCN(C3CCc4cc(C#N)ccc4C3)CC1)O2` (single isomer, unassigned): the “block of IKr” value in data set [3] was “predominantly, if not exclusively, block IKr”.

For the compound `COC(=O)C1=C(C)NC(C)=C(C(=O)OCC(C)C)C1c1ccccc1[N+](=O)[O-]` (stereo not shown) [Nisoldipine], the “block of L-type Ca2+ channels” value in data set [4] is “relatively specific blocker of L-type Ca^2+ channels”. Besides, the “effect on K+ currents” value in data set [5] is “no effect on K^+ currents”.

As for `CC(C)S(=O)(=O)NC(=O)c1cccc(NC(=O)NC2N=C(C3CCCCC3)c3ccccc3N(C)C2=O)c1` (stereo not shown) [Example 5], the values for the inhibition at 1 µM in data set [1] (setting [16]) and in data set [2] (setting [18]) were 10% and 16.1%, respectively. Further, the inhibition at 10 µM was 30.5 ± 6.6% in [1] (setting [17]) and 24.7 ± 13% in [2] (setting [19]). The half-inhibitory concentration (IC50) in [1] (Guinea Pig Myocytes, read-out: IC50 or % Block (μM), IKs (bare number: IC50)) worked out at 57 µM; in [2] (Guinea Pig Myocytes, read-out: IC50 or % Block (μM), IKr (bare number: IC50)), 77 µM.

Consider `Cc1cccc(NC(=O)NC2N=C(N3CCOCC3)c3ccccc3N(C)C2=O)c1` (stereo not shown) [Example 12], for which the inhibition at 10 µM in data set [1] (setting [17]) is 16 ± 11%; in data set [2] (setting [19]), 30 ± 5.4%. Besides, the inhibition at 1 µM in data set [2] (setting [18]) is 13 ± 3.1%.

Take `CN(CCOc1ccc(NS(C)(=O)=O)cc1)CCc1ccc(NS(C)(=O)=O)cc1` [dofetilide]: the “block of IKr” value in data set [3] is “predominantly, if not exclusively, block IKr”.

`CN1C(=O)[C@H](NC(=O)c2cc3ccccc3[nH]2)N=C(c2ccccc2)c2ccccc21` [Compound 1, 3(R)-(+)-1,3-dihydro-3-(2-indolecarbonylamino)-1-methyl-5-phenyl-2H-1,4-benzodiazepin-2-one]: the inhibition at 1 µM in [2] (setting [13]) stood at 20%.

On to `CN1C(=O)C(NC(=O)c2cc3ccccc3[nH]2)N=C(c2ccncc2)c2ccccc21` (stereo not shown) [Example 9], for which the inhibition at 1 µM worked out at 20% in data set [1] (setting [16]) and 44.3% in data set [2] (setting [18]). Further, the results for the inhibition at 10 µM in data set [1] (setting [17]) and in data set [2] (setting [19]) were 66% and 82.4%, respectively.

Turning to `CCCCc1oc2ccccc2c1C(=O)c1cc(I)c(OCCN(CC)CC)c(I)c1` [amiodarone], in [6], the “block of IKs” value is listed as “blocker of IKs”. Further, the “block of Na+ currents” value in data set [7] was “blocks Na^+ and Ca^2+ currents”. The “block of Ca2+ currents” value in data set [8] is “blocks Na^+ and Ca^2+ currents”. The “effect on thyroid function” value in [9] is “effects thyroid function”. For the same compound, in data set [10], the adrenergic block result was “nonspecific adrenergic blocker”. Also, the inhibition of phospholipase entry in data set [11] was “inhbitor of the enzyme phospholipase”. Also, the “Class III properties / selectivity” value is reported as “interesting Class III properties” in data set [12] and “not a selective Class III antiarrhythmic agent” in [12] (listed as Amiodarone).

As for `CC(C)NCC(O)c1ccc(NS(C)(=O)=O)cc1` (stereo not drawn) [d-sotalol], the “block of IKr” value in [3] was “predominantly, if not exclusively, block IKr”.
